Where “and” joins values, the source holds several entries; their conditions need not be identical. Identical values can stand only once.
Key:
[1] = Plasma protein binding, rat; format: in vitro ADME
Experimental: (§1) At pre-set time-points, blood concentration of JH4 was determined by LC-MS/MS analysis[22],[23]. Other chemicals were also tested using similar protocol. In vitro ADME studies (plasma protein binding, CYP inhibition, microsomal stability, plasma stability, and hERG inhibition) were performed by New Drug Development Center (Daegu, Korea) using standard protocols[24],[25].

CYP2D6 = CYP2D6 (Homo sapiens, UniProt P10635); experiment: CYP inhibition, CYP2D6; format: in vitro ADME
CYP2D6, sequence (P10635 whole entry): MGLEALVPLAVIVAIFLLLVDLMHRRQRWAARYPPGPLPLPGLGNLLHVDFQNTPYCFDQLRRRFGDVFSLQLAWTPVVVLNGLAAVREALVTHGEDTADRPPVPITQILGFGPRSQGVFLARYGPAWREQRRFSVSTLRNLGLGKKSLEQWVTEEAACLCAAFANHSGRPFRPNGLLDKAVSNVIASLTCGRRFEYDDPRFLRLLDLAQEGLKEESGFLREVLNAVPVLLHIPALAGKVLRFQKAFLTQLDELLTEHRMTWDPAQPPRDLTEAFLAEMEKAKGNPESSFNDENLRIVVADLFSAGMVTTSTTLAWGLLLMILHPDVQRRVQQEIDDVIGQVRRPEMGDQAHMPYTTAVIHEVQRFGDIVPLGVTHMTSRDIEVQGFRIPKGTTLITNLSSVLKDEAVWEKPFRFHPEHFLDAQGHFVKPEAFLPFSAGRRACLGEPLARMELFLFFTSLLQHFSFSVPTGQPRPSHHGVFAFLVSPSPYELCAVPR
Experimental: as §1

CYP2C19 = CYP2C19 (Homo sapiens, UniProt P33261); experiment: CYP inhibition, CYP2C19; format: in vitro ADME
CYP2C19, sequence (P33261 whole entry): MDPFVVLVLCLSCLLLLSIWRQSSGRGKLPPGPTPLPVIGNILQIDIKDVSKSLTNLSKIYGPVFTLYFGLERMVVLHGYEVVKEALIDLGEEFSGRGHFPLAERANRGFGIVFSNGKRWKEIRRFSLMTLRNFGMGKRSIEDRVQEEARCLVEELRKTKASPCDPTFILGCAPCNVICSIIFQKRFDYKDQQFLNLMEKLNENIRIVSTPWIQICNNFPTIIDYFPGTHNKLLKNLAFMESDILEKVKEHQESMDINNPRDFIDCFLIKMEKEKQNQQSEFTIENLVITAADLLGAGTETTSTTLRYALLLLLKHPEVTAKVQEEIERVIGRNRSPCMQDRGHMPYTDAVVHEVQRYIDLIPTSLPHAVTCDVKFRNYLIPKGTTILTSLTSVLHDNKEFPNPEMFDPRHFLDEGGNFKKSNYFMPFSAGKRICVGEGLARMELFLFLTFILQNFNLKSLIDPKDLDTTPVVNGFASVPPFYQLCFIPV
Experimental: as §1, with “For PK analysis, 5 mg/kg of JH4 in 10% DMSO, 5% […] solution were intravenously injected and 10 mg/kg of JH4 in 10% NMP and 90% PEG400 solution were orally delivered. At” for “At”

HGPS cells = experiment: Ki67-positive cells in HGPS cells; format: cell-based, human; details: for Ki67 positive cells/total cells: AG03199; for Ki67 positive cells/total cells (ratio): AG11498, 3 days
Experimental: A. In vivo pharmacokinetic (PK) analysis of JH010 (performed in rats). […] B Effect of SLC-D011 on human ERG (hERG). […] C In vivo pharmacokinetic analysis of SLD-D011. […] HEK293 cells transiently transfected with GFP-PG vectors were treated with SLC-D011 for 24 hr (n = 3 independent experiment; two-tailed Student’s t test). […] “Con” means dimethyl sulfoxide (DMSO)-treated control.
Cells were cultured on coverslips, washed with PBS, fixed with 4% paraformaldehyde (PFA) for 30 min at RT, and then permeabilized with 0.2% Triton X-100 at RT for 5 min. After treatment with blocking solution (anti-Human antibody diluted 1:400 in PBS) for 1 h, cells were incubated with anti-lamin A/C (1:400), anti-progerin (1:100), Ki67 (1:200), and anti-H3K9me3 (1:200) in blocking buffer overnight at 4 °C. Finally, cells were incubated with fluorescein isothiocyanate and rhodamine-conjugated secondary antibodies at 4 °C for 7 h. Nuclei were stained with DAPI (4, 6-diamidino-2-phenylindole) at RT for 10 min. After cells were washed three times with PBS, coverslips were mounted with mounting solution (H-5501; Vector Laboratories, Burlingame, CA, USA). Immunofluorescence signal was detected with a fluorescence microscopy (Zeiss and Logos).
HGPS cells were treated with SLC-D011 at a low concentration ( from 10
nM to 5μM) for 3 days. C. […]
[…] DAPI indicated DNA.

`CC1(C)Oc2cc3oc(=O)ccc3cc2C[C@@H]1OC/C=C/c1ccccc1` [SLC-D011] gave a fraction unbound [1] of 0.002, a CYP inhibition (CYP2D6) of 91.7 and a CYP inhibition (CYP2C19) of 28.8. For the same compound, the “Ki67 positive cells/total cells” value (HGPS cells; 10nM, Ave) was 0.1497 ratio, the “Ki67 positive cells/total cells” value (HGPS cells; 10nM, individual replicate) was 0.0625 ratio and 0.2083 ratio and 0.1538 ratio and 0.1646 ratio and 0.1594 ratio and the “Ki67 positive cells/total cells” value (HGPS cells; 50nM, Ave) was 0.369 ratio. For the same compound, the “Ki67 positive cells/total cells” value (HGPS cells; 50nM, individual replicate) was 0.2857 ratio and 0.375 ratio and 0.4444 ratio and 0.5 ratio and 0.24 ratio, the “Ki67 positive cells/total cells” value (HGPS cells; 100nM, Ave) was 0.418 ratio and the “Ki67 positive cells/total cells” value (HGPS cells; 100nM, individual replicate) was 0.275 ratio and 0.3214 ratio and 0.4286 ratio and 0.44 ratio and 0.625 ratio. The “Ki67 positive cells/total cells” value (HGPS cells; 500nM, Ave) was 0.45 ratio, the “Ki67 positive cells/total cells” value (HGPS cells; 500nM, individual replicate) was 0.3889 ratio and 0.5 ratio and 0.5714 ratio and 0.3684 ratio and 0.4211 ratio and the “Ki67 positive cells/total cells” value (HGPS cells; 1μM, Ave) was 0.4556 ratio. For the same compound, the “Ki67 positive cells/total cells” value (HGPS cells; 1μM, individual replicate) was 0.4146 ratio and 0.4286 ratio and 0.5 ratio and 0.4792 ratio, the “Ki67 positive cells/total cells” value (HGPS cells; 2μM, Ave) was 0.479 ratio and the “Ki67 positive cells/total cells” value (HGPS cells; 2μM, individual replicate) was 0.5 ratio (2×) and 0.44 ratio and 0.4762 ratio. The “Ki67 positive cells/total cells” value (HGPS cells; 5μM, Ave) was 0.4663 ratio, the “Ki67 positive cells/total cells” value (HGPS cells; 5μM, individual replicate) was 0.3571 ratio and 0.2857 ratio and 0.75 ratio and 0.5909 ratio and 0.3478 ratio and the “Ki67 positive cells/total cells (ratio)” value (HGPS cells; 10nM) was 0.25 and 0.2222 and 0.2143 and 0.3. For the same compound, the “Ki67 positive cells/total cells (ratio)” value (HGPS cells; 10nM, mean) was 0.2466, the “Ki67 positive cells/total cells (ratio)” value (HGPS cells; 50nM) was 0.2857 and 0.3333 and 0.375 and 0.2 and the “Ki67 positive cells/total cells (ratio)” value (HGPS cells; 50nM, mean) was 0.2985. For the same compound, the “Ki67 positive cells/total cells (ratio)” value (HGPS cells; 100nM) was 0.3333 and 0.3125 and 0.4 and 0.375, the “Ki67 positive cells/total cells (ratio)” value (HGPS cells; 100nM, mean) was 0.3552 and the “Ki67 positive cells/total cells (ratio)” value (HGPS cells; 500nM) was 0.375 and 0.4444 and 0.4286. The “Ki67 positive cells/total cells (ratio)” value (HGPS cells; 500nM, mean) was 0.4058, the “Ki67 positive cells/total cells (ratio)” value (HGPS cells; 1μM) was 0.3333 and 0.4 and 0.6 and 0.375 and the “Ki67 positive cells/total cells (ratio)” value (HGPS cells; 1μM, mean) was 0.4271. For the same compound, the “Ki67 positive cells/total cells (ratio)” value (HGPS cells; 2μM) was 0.4 and 0.375 and 0.4167, the “Ki67 positive cells/total cells (ratio)” value (HGPS cells; 2μM, mean) was 0.3979 and the “Concentration enough for inducing Ki67 expression” value (HGPS cells; HGPS cells) was 100 nM.

— PMC7782499, “Progerinin, an optimized progerin-lamin A binding inhibitor, ameliorates premature senescence phenotypes of Hutchinson-Gilford progeria syndrome” (Communications Biology, 2021)
